# From the Deep4Chem optical property database
# Values joined by “and” are separate entries in the source; they are usually repeats but may differ in a detail not shown here. Identical values can stand only once.
# Assay: solvent given as SMILES
compound,measurement,setting,value
CCCCCCC(CCCCCC)N1C(=O)c2cccc3c(-c4ccc([Si](C)(C)C)cc4)ccc(c23)C1=O,absorption maximum,in CCCCCC,343.4 nm
same,absorption maximum,in CCCCCCCCCCCCCC,344.4 nm
same,absorption maximum,in CCCCCCCCCCCO,355 nm
same,absorption maximum,in CCCCO,357.6 nm
same,absorption maximum,in CN(C)C=O,356 nm
same,absorption maximum,in Cc1ccccc1,353.4 nm
same,absorption maximum,in ClC(Cl)Cl,356 nm
Cc1cccc(Nc2ccccc2C(=O)O)c1C,absorption maximum,in CC#N,351 nm
same,absorption maximum,in CCOC(C)=O,351 nm
same,absorption maximum,in CO,345 nm
same,absorption maximum,in ClC(Cl)Cl,357 nm
C(#Cc1ccncc1)C(C#Cc1ccncc1)=Cc1ccc(C=C(C#Cc2ccncc2)C#Cc2ccncc2)s1,absorption maximum,in ClC(Cl)Cl,522 nm
Clc1ccc(/C=C/c2cnc3ccccc3n2)cc1,absorption maximum,in ClCCl,355 nm
COc1ccc(-c2cc3c(s2)c(C(C)=O)cc(=O)n3C)cc1,absorption maximum,in CC#N,412 nm
same,absorption maximum,in ClCCl,418 nm
Cc1cc(C)c(B(c2ccccc2N(c2ccccc2)c2ccccc2)c2c(C)cc(C)cc2C)c(C)c1,absorption maximum,in Cc1ccccc1,415 nm
CC(C)(C)c1ccc2cc3c4cccc5cccc(c6cc(C(C)(C)C)cc(c2c1)c63)c54,absorption maximum,in CC1CCCCC1,438 nm
CCC1(CC)c2cc(C=C(C#N)C#N)ccc2-c2ccc(N(C)C)cc21,absorption maximum,in C1CCCCC1,480 nm
same,absorption maximum,in CC#N,474 nm
same,absorption maximum,in CCO,478 nm
same,absorption maximum,in CCOCC,470 nm
same,absorption maximum,in CS(C)=O,490 nm
same,absorption maximum,in ClCCl,490 nm
same,absorption maximum,in c1ccccc1,480 nm
CC1(C)CC(/C=C/c2ccc(N3CCOCCOCCOCCOCC3)cc2)=CC(=C(C#N)C#N)C1,absorption maximum,in C1CCOC1,500 nm
same,absorption maximum,in CC#N,493 nm
same,absorption maximum,in CCO,504 nm
same,absorption maximum,in CCOC(C)=O,496 nm
same,absorption maximum,in ClCCl,502 nm
same,absorption maximum,in c1ccccc1,500 nm
CCCCCCCCC1(CCCCCCCC)c2cc(-c3ccc(C(F)(F)F)cc3)ccc2-c2ccc(N(c3ccc(-n4c5ccccc5c5ccccc54)cc3)c3ccc4c(c3)C(CCCCCCCC)(CCCCCCCC)c3cc(-c5ccc(C(F)(F)F)cc5)ccc3-4)cc21,absorption maximum,in C1CCOC1,375 nm
same,absorption maximum,in C1COCCO1,374 nm
same,absorption maximum,in CC#N,370 nm
same,absorption maximum,in CC(C)=O,371 nm
same,absorption maximum,in CCCCCC,380 nm
same,absorption maximum,in CCCCOCCCC,379 nm
same,absorption maximum,in CCN(CC)CC,376 nm
same,absorption maximum,in CCOC(C)=O,372 nm
same,absorption maximum,in CCOCC,374 nm
same,absorption maximum,in CN(C)C=O,373 nm
same,absorption maximum,in CS(C)=O,371 nm
same,absorption maximum,in Cc1ccccc1,379 nm
same,absorption maximum,in ClC(Cl)Cl,382 nm
same,absorption maximum,in ClCCl,378 nm
same,absorption maximum,in c1ccccc1,378 nm
c1cc2ccc3[o+]c4ccc5cccc6c7cccc8c(c1)c2c3c(c87)c4c56,absorption maximum,in ClCCl,573 nm
CC1(C)c2ccccc2N(c2ccc3c(c2)c(=O)c2cccc4c(=O)c5cc(N6c7ccccc7C(C)(C)c7ccccc76)ccc5n3c24)c2ccccc21,absorption maximum,in Cc1ccccc1,432.96 nm
Cc1ccc(C2=C3C=CC(=[N+](C)C)C=C3[Si](C)(C)c3cc(N(C)C)ccc32)c(C)c1,absorption maximum,in O,646 nm
OCc1ccc2c3cccc4cccc(c5cccc1c52)c43,absorption maximum,in CCO,439 nm
CCOc1cc2c(cc1/C=C/C(=C(C#N)C#N)c1ccccc1)c1ccccc1n2CC,absorption maximum,in C1CCOC1,462 nm
same,absorption maximum,in CC#N,462 nm
same,absorption maximum,in CCO,468 nm
same,absorption maximum,in CCOC(C)=O,458 nm
same,absorption maximum,in CN(C)C=O,471 nm
same,absorption maximum,in CS(C)=O,476 nm
same,absorption maximum,in Cc1ccccc1,462 nm
same,absorption maximum,in ClC(Cl)Cl,470 nm
same,absorption maximum,in ClCCl,468 nm
CCC(C)(C)c1ccc2c(c1)C(CC)(CC)c1cc(-c3ccc(-c4ccc5c(c4)C(CC)(CC)c4cc(C(C)(C)CC)ccc4-5)cc3)ccc1-2,absorption maximum,in C1CCCCC1,332 nm
CCn1c2ccccc2c2cc(/C=C(\C#N)c3ccccc3)ccc21,absorption maximum,in ClCCl,374 nm
C(=C\c1cccc2ccccc12)/c1ncc(-c2ccccc2)o1,absorption maximum,in ClCCl,357 nm
c1ccc(N2c3ccccc3C3(c4ccccc4-c4ccccc43)c3ccccc32)cc1,absorption maximum,in ClCCl,310 nm
CCCCCCc1ccc(-n2c3c4cccc(OC)c4nc(-c4ccc(C)cc4)c3c3c2c2c(-c4ccc(C)cc4)nc4c(OC)cccc4c2n3-c2ccc(CCCCCC)cc2)cc1,absorption maximum,in ClC(Cl)Cl,315 nm
N#Cc1ccc(-n2cccc2)cc1,absorption maximum,in C1CCOC1,287 nm
same,absorption maximum,in CC#N,287 nm
same,absorption maximum,in CCCCCC,287 nm
same,absorption maximum,in CCOCC,287 nm
same,absorption maximum,in ClCCl,287 nm
COc1ccc(/C=C/c2ccccc2)cc1,absorption maximum,in CC#N,317 nm
c1ccc2c(c1)c1ccccc1n2-c1ccc(-c2ccc3nc(-c4ccc(-n5c6ccccc6c6ccccc65)cc4)nn3c2)cc1,absorption maximum,in C1CCOC1,341 nm
CCN(CC)c1ccc2c(c1)oc(=O)c1c(=O)oc3cc(Br)ccc3c12,absorption maximum,in CS(C)=O,469 nm
same,absorption maximum,in ClCCl,466 nm
COc1ccc2c(c1)C(=O)c1ccccc1-2,absorption maximum,in C1CCCCC1,421 nm
same,absorption maximum,in CC#N,432 nm
same,absorption maximum,in CCO,433 nm
COc1c(C)c2c(c(C)c1Cl)Oc1c(C=O)c(O)c(Cl)c(C)c1C(=O)O2,absorption maximum,in ClC(Cl)Cl,342 nm
COc1ccc(-c2c3nc(cc4ccc([nH]4)c(-c4ccc(OC)c(OCCCC(=O)O)c4)c4nc(cc5ccc2[nH]5)C=C4)C=C3)cc1OCCCC(=O)O,absorption maximum,in CS(C)=O,634 nm
C=Cc1cc2cc3c(cc2oc1=O)OCO3,absorption maximum,in CC#N,363 nm
COc1ccc(C2=C3C(C)=CC(C=Cc4ccc(C(=O)OC5C[C@H]6CCC5(C)C6(C)C)cc4)=[N+]3[B-](F)(F)n3c(/C=C/c4ccc(C(=O)OC5CC6CCC5(C)C6(C)C)cc4)cc(C)c32)cc1 (stereo partly drawn),absorption maximum,in Cc1ccccc1,640 nm
CCC(C)[Si](C#Cc1c2nc3c4ccccc4c(=O)c4ccccc4c3nc2c(C#C[Si](C(C)CC)(C(C)CC)C(C)CC)c2nc3c4ccccc4c(=O)c4ccccc4c3nc12)(C(C)CC)C(C)CC (stereo not drawn),absorption maximum,in ClCCl,544 nm
Cc1ccc(N(C)C)cc1C1=C2C=CC(=[N+](C)C)C=C2[Si](C)(C)c2cc(N(C)C)ccc21,absorption maximum,in O,646 nm
COc1ccc(-c2c3cc4cc(C)sc4cc3c(C#Cc3ccccc3)c3cc4cc(C)sc4cc23)cc1,absorption maximum,in ClCCl,539 nm
C#CCOc1ccc(/C=C/C2=[N+]3C(=C(c4ccc(N(C)CC)cc4)c4c(C)cc(C)n4[B-]3(F)F)C(C)=C2)cc1,absorption maximum,in CO,569 nm
CC1=C(C#Cc2ccc(B(c3c(C)cc(C)cc3C)c3c(C)cc(C)cc3C)cc2)C(C)=[N+]2C1=C(c1ccccc1)c1c(C)c(C#Cc3ccc(B(c4c(C)cc(C)cc4C)c4c(C)cc(C)cc4C)cc3)c(C)n1[B-]2(F)F,absorption maximum,in ClCCl,576 nm
CCC1=C(C)C2=Cc3c4ccccc4c4n3[B-](c3ccc5ccc6cccc7ccc3c5c67)(Oc3ccccc3-4)[N+]2=C1C (stereo not drawn),absorption maximum,in CC#N,622 nm
same,absorption maximum,in CCCCCC,627 nm
same,absorption maximum,in Cc1ccccc1,630 nm
same,absorption maximum,in ClCCl,628 nm
NCc1ccc2ccc3cccc4ccc1c2c34,absorption maximum,in CC#N,341 nm
same,absorption maximum,in CO,340 nm
same,absorption maximum,in ClC(Cl)Cl,344 nm
CNCCCC1c2ccccc2C=Cc2ccccc21,absorption maximum,in CC#N,293 nm
same,absorption maximum,in CO,293 nm
same,absorption maximum,in O,292 nm
F[B-]1(F)n2cccc2C(c2ccccc2)=C2C=CC(c3cccc(OC4=[N+]5C(=C(c6ccccc6)c6cc(Br)c(Br)n6[B-]5(F)F)C=C4Br)c3)=[N+]21,absorption maximum,in ClC(Cl)Cl,556 nm
CC1=N/C(=C\c2cccc(N(C)C)c2)C(=O)N1C,absorption maximum,in C1CCOC1,354 nm
same,absorption maximum,in CC#N,354 nm and 352 nm
same,absorption maximum,in CCCCCC,352 nm
CCCCCCCCCCCCCCn1c(-c2cc(-c3nc4ccc(C)cc4n3CCCCCCCCCCCCCC)cc(-c3nc4ccc(C)cc4n3CCCCCCCCCCCCCC)c2)nc2ccc(C)cc21,absorption maximum,in ClCCl,306.5 nm
COC(=O)c1ccc(C2=C3C(C)=CC(C)=[N+]3[B-](F)(F)n3c(/C=C/c4c[nH]cn4)cc(C)c32)cc1,absorption maximum,in ClC(Cl)Cl,572 nm
CC1=CC(C)=[N+]2C1=C(c1ccc(C(=O)OC3C[C@@H]4CC[C@]3(C)C4(C)C)cc1)c1c(C)cc(C)n1[B-]2(F)F (stereo partly drawn),absorption maximum,in Cc1ccccc1,506 nm
c1ccc2c(c1)ccc1ccccc12,absorption maximum,in Cc1ccccc1,295 nm
CCN1C(=O)C(C2C(=O)c3c4ccccc4cc4cc5ccccc5c2c34)C(=O)N(CC)C1=S (stereo not drawn),absorption maximum,in ClCCl,532.11 nm
COc1ccc(-c2nnc(-c3cc(-n4c5ccccc5c5ccccc54)c(-n4c5ccccc5c5ccccc54)cc3-c3nnc(-c4ccc(OC)cc4)o3)o2)cc1,absorption maximum,in ClCCl,353 nm
CCCCCCOc1ccc(-c2cnc(-c3nnc(-c4ccc(OCCCCCC)cc4)o3)o2)cc1,absorption maximum,in C1CCCCC1,316 nm
same,absorption maximum,in C1CCOC1,319 nm
same,absorption maximum,in CC#N,320 nm
same,absorption maximum,in CCO,322 nm
same,absorption maximum,in CO,320 nm
same,absorption maximum,in ClC(Cl)Cl,325 nm
COc1cnc(-c2cc[n+](C3=C(F)C(F)(F)C(F)(F)[C-]3F)cc2)s1,absorption maximum,in CC#N,407 nm
same,absorption maximum,in CC(C)=O,408 nm
same,absorption maximum,in CCO,409 nm
same,absorption maximum,in CN(C)C=O,410 nm
same,absorption maximum,in CO,407 nm
same,absorption maximum,in CS(C)=O,410 nm
same,absorption maximum,in ClC(Cl)Cl,433 nm
same,absorption maximum,in ClCCl,430 nm
CCC1=C(C)C(=O)n2c1cc1c(c(C)c(C(=O)OCC(C)C)n1CC(C)C)c2=O,absorption maximum,in C1CCCCC1,397 nm
same,absorption maximum,in CO,397 nm
same,absorption maximum,in CS(C)=O,397 nm
same,absorption maximum,in ClC(Cl)Cl,399 nm
same,absorption maximum,in c1ccccc1,397 nm
Oc1ccc2ccccc2c1/C=N/c1cc2nc3ccccc3nc2cc1/N=C/c1c(O)ccc2ccccc12,absorption maximum,in CC#N,420 nm
CC(C)CCC[C@@H](C)[C@H]1CC[C@H]2[C@@H]3CC=C4C[C@@H](OC(=O)Oc5cc(/C=C/C=C/c6ccc(N(C)C)cc6)ccc5[N+](=O)[O-])CC[C@]4(C)[C@H]3CC[C@]12C,absorption maximum,in CO,448 nm
CCCCC(CC)COc1ccc2nc(-c3ccc(-c4cccs4)s3)sc2c1 (stereo not drawn),absorption maximum,in ClCCl,382 nm
Cc1c2c(c(C)c3ccccc13)-c1c-2ccc2nc3ccccc3nc12,absorption maximum,in ClC(Cl)Cl,455 nm
CCN(CC)c1ccc2cc(/C(Cl)=C/C=C/C(=C(C#N)C#N)c3ccc4c(c3)c3ccccc3n4CC)c(=O)oc2c1,absorption maximum,in CC(C)=O,518 nm
same,absorption maximum,in CCOC(C)=O,508 nm
same,absorption maximum,in CN(C)C=O,532 nm
same,absorption maximum,in CS(C)=O,538 nm
same,absorption maximum,in Cc1ccccc1,508 nm
same,absorption maximum,in ClCCl,526 nm
